In patent publication US20210127675A1, “METHOD FOR C[…]-TYPE MULTIDRUG RESISTANT PLANT DISEASES” (priority 2017, published 2021):

What was measured:
[1] = system: grapes gray mold fungus (Botrytis cinerea); test: Control test against efflux type multidrug resistant grapes gray mold fungus (growth in PDB, absorbance at 600 nm); format: cell-based; settings: for EC50 value ratio 1: EC50 against resistant strain 1 / EC50 against wild-type strain; for EC50 value ratio 2: EC50 against resistant strain 2 / EC50 against wild-type strain; for EC50 value ratio 3: EC50 against resistant strain 3 / EC50 against wild-type strain; for EC50 value, Efflux type multidrug resistant fungus strain 1: strain 1: ABC transporter-overexpressing (Bc-56, NITE BP-02676); for EC50 value, Efflux type multidrug resistant fungus strain 1 / EC50 value, Efflux type multidrug resistant fungus strain 2 / EC50 value, Efflux type multidrug resistant fungus strain 3 / EC50 value, Wild-type fungus strain: 18° C., 2 days; for EC50 value, Efflux type multidrug resistant fungus strain 2: strain 2: MFS transporter-overexpressing (Bc-107, NITE BP-02678); for EC50 value, Efflux type multidrug resistant fungus strain 3: strain 3: ABC transporter and MFS transporter-overexpressing (Bc-103, NITE BP-02677)
Experimental: (§1) Efficacy=100×(X−Y)/X “Equation 1” • X: Degree of growth of fungus in non-treated group • Y: Degree of growth of fungus in treated group
(§2) EC50 value ratio=EC50 value against efflux type multidrug resistant fungus strain/EC50 value against wild-type fungus strain “Equation 2”
Control Test Against Efflux Type Multidrug Resistant Grapes Gray Mold Fungus (Botrytis cinerea)
Each of the present compound (1), fludioxonil and tolnaftrate was diluted with dimethyl sulfoxide to a prescribed concentration thereof, respectively. Each of the chemical solutions comprising the respective testing compound was dispensed into a titer plate (with 96 wells) in the amount of 1 μL. Thereto was then dispensed 150 μL of a potato dextrose broth (PDB culture media) to which each conidia of grapes gray mold fungi, that is, efflux type multidrug resistant fungus strains (specifically, efflux type multidrug resistant fungus strain 1: ABC transporter-overexpressing fungus strain (fungus strain name: NITE accession number (NITE BP-02676), in-house management codes (Bc-56)); efflux type multidrug resistant fungus strain 2: MFS transporter-overexpressing fungus strain (fungus strain name: NITE accession number (NITE BP-02678), in-house management codes (Bc-107)); and efflux type multidrug resistant fungus strain 3: ABC transporter and MFS transporter-overexpressing fungus strain (fungus strain name: NITE accession number (NITE BP-02677), in-house management codes (Bc-103))) or wild-type fungus strain, respectively, was inoculated in advance. The plate was cultured at 18° C. for 2 days, thereby allowing each grapes gray mold fungus to undergo proliferation, and the absorbance at 600 nm of each well of the titer plate was then measured to determine a degree of growth of each of the grapes gray mold fungi (treated group). On the other hand, each of the groups where the wild-type fungus strain or the efflux type multidrug resistant grapes gray mold fungus strains was grown except that the chemical solution was replaced with dimethyl sulfoxide were made non-treated group, respectively, and then the degree of the growth thereof was examined (non-treated group).
The efficacy was calculated from the degree of the growth by the below-mentioned “Equation 1”, and then each EC50 value of the testing compound, respectively against the efflux type multidrug resistant fungus strains and the wild-type fungus strain was calculated. Also, an EC50 value ratio was calculated by the above-mentioned “Equation 2”.

[2] = system: wheat Septoria leaf blotch fungus (Zymoseptoria tritici); test: Control test against efflux type multidrug resistant wheat Septoria leaf blotch fungus (growth in PDB, absorbance at 600 nm); format: cell-based; settings: for EC50 value ratio: EC50 against efflux type multidrug resistant strain / EC50 against wild-type strain; for EC50 value, Efflux type multidrug resistant fungus strain: efflux type multidrug resistant fungus strain St 106-6; for EC50 value, Efflux type multidrug resistant fungus strain / EC50 value, Wild-type fungus strain: 18° C., 4 days
Experimental: Control test against Efflux type multidrug resistant wheat Septoria leaf blotch fungus (Zymoseptoria tritici)
Each of the present compound (1) and tolnaftrate was diluted with dimethyl sulfoxide to a prescribed concentration thereof, respectively. Each of the chemical solutions comprising the respective testing compound was dispensed into a titer plate (with 96 wells) in the amount of 1 μL. Thereto was then dispensed 150 μL of a potato dextrose broth (PDB culture media) to which each conidia of wheat Septoria leaf blotch fungus (efflux type multidrug resistant fungus strains) (fungus strain name: St 106-6 as in-house management codes) or wild-type fungus strain, respectively, was inoculated in advance. The plate was cultured at 18° C. for 4 days, thereby allowing each wheat Septoria leaf blotch fungus to undergo proliferation, and the absorbance at 600 nm of each well of the titer plate was then measured to determine a degree of growth of the wheat Septoria leaf blotch fungus (treated group). On the other hand, each of the groups where the wild-type fungus strain or the efflux type multidrug resistant wheat Septoria leaf blotch fungus strain was grown except that the chemical solution was replaced with dimethyl sulfoxide were made non-treated group, respectively, and then the degree of growth thereof was examined (non-treated group).
The efficacy was calculated from the degree of the growth by the below-mentioned “Equation 1”, and then each […] value of the testing compound, respectively against the efflux type multidrug resistant fungus strains and the wild-type fungus strain was calculated. Next, as shown in the below-mentioned “Equation 2”, an EC50 value ratio was calculated by dividing an EC50 value against the efflux type multidrug resistant fungus strains by an EC50 value against the wild-type fungus strain.
as §1, §2

N#Cc1c[nH]cc1-c1cccc2c1OC(F)(F)O2 [Fludioxonil]
EC50 value ratio 1 [1]: 23
EC50 value ratio 2 [1]: 14
EC50 value ratio 3 [1]: 43
EC50 value, Efflux type multidrug resistant fungus strain 1 [1]: 0.19 ppm
EC50 value, Efflux type multidrug resistant fungus strain 2 [1]: 0.12 ppm
EC50 value, Efflux type multidrug resistant fungus strain 3 [1]: 0.36 ppm
EC50 value, Wild-type fungus strain [1]: 0.0085 ppm

Cc1cccc(N(C)C(=S)Oc2ccc3ccccc3c2)c1 [Tolnaftate]
EC50 value ratio [2]: >19
EC50 value ratio ([2]; listed as tolnaftate): 19
EC50 value, Efflux type multidrug resistant fungus strain [2]: >10 ppm
EC50 value, Wild-type fungus strain [2]: 0.51 ppm
EC50 value ratio 1 [1]: >4.5
EC50 value ratio 1 ([1]; listed as tolnaftate): more than 4.5
EC50 value ratio 2 [1]: >4.5
EC50 value ratio 2 ([1]; listed as tolnaftate): more than 4.5
EC50 value ratio 3 [1]: >4.5
EC50 value ratio 3 ([1]; listed as tolnaftate): more than 4.5
EC50 value, Efflux type multidrug resistant fungus strain 1 [1]: >10 ppm
EC50 value, Efflux type multidrug resistant fungus strain 2 [1]: >10 ppm
EC50 value, Efflux type multidrug resistant fungus strain 3 [1]: >10 ppm
EC50 value, Wild-type fungus strain [1]: 2.2 ppm

Cc1nn(C)c(Nc2c(F)cccc2Cl)c1-c1ccc(F)cc1Br [Present compound (1)]
EC50 value ratio [2]: 1.1
EC50 value, Efflux type multidrug resistant fungus strain [2]: 0.052 ppm
EC50 value, Wild-type fungus strain [2]: 0.048 ppm
EC50 value ratio 1 [1]: 1.7
EC50 value ratio 2 [1]: 1.6
EC50 value ratio 3 [1]: 1.1
EC50 value, Efflux type multidrug resistant fungus strain 1 [1]: 0.11 ppm
EC50 value, Efflux type multidrug resistant fungus strain 2 [1]: 0.11 ppm
EC50 value, Efflux type multidrug resistant fungus strain 3 [1]: 0.072 ppm
EC50 value, Wild-type fungus strain [1]: 0.067 ppm
